From patent US10125078B1, “NSAID derivatives of omega-3 polyunsaturated acids as gamma secretase modulators” (Jiva Pharma, Inc., priority 2015, dated 2018)
Values joined by “and” are separate entries in the source; they are usually repeats but may differ in a detail not shown here. Equal values may be shown once. Read-outs that look alike come from different tables or passages of the source.

Experiments:
gamma-secretase = biological target: T1, gamma-secretase (Homo sapiens, UniProt P49768); assay: gamma-secretase modulating activity in cell cultures of human neuroblastoma SHSY-5 cells, intracellular Aβ x-40 by ELISA; assay type: cell-based; conditions: for experiment 1 / experiment 2 / experiment 3: Aβ ELISA signal, 0 nM about 100; for bestfit2 / bestfit3 / bestfit1: fitted curve; for average signal triplicates: cells incubated 18 h, ELISA OD 450 nm; for signal nomalised to cells: normalised to collected cell mass; for sign-bkgr: signal minus background; for IC50: read-out: calculated IC50
T1 construct: Fresh human neuroblastoma cells SHSY-5 were purchased from ATCC; host or cells: SH-SY5Y human neuroblastoma cells, untransfected
Description: The gamma-secretase modulating activity of Jiva compounds were determined in Cell Cultures of fresh human neuroblastoma SHSY-5 cells. The enzyme-linked immunosorbent assay (ELISA) is one of the most commonly used, reliable, and sensitive methods for quantitating the A β peptides. The detailed methods for the recovery of both soluble and deposited A β from brain tissue and the subsequent quantitation of the peptides by ELISA are thoroughly described in literature such as Stephen D. Schmidt, et al., “Amyloid, Enzyme-linked immunosorbent assay, ELISA, Extraction, Quantification”, Methods in Molecular Biology, vol. 849, DOI 10.1007/978-1-61779-551-0_34, Springer Science+Business Media, LLC 2012; Zeljko M. Svedruzic, et al., “Modulators of γ-Secretase Activity Can Facilitate the Toxic Side-Effects and Pathogenesis of Alzheimer's Disease”, PLOS ONE, 1 Jan. 2013|Volume 8|Issue 1; Catherine R. Burton et al., “The Amyloid-β Rise and γ-Secretase Inhibitor Potency Depend on the Level of Substrate Expression” Aug. 22, 2008 The Journal of Biological Chemistry 283, 22992-23003.
The well-studied γ-secretase inhibitor, semagacestat (WIKI) was used as a positive control in the above assays.
The following are procedures used for screening gamma-secretase modulating activity of Jiva compounds in cell cultures.
Protocol for Growing SHSY-5 Cells:
Fresh human neuroblastoma cells SHSY-5 were purchased from ATCC in the […]. All SHSY-5 cells were propagated and grown in p75 flasks, following the supplier's instructions. Briefly, SH-SY5Y cells were grown to confluence in Dulbecco's Modified Eagles Medium (DMEM) supplemented with 2 mM L-glutamine, 1× nonessential amino acids, and 0.22 micrometers filtered 10% heat inactivated fetal bovine serum (FBS) in a 5% CO2 humidified incubator at 37° C. Cultures were split twice a week and cells were seeded at 2.5×10^4 cells/cm^2. The cells were detached from the bottles after two phosphate buffer washes that were followed by 5 min treatment with 0.25% trypsine solution.
Protocol for Preparation of Jiva Compounds and the Initial Screening:
Jiva compounds were dissolved under sterile conditions in different volumes of molecular biology grade dimethylsulfoxide (DMSO) so that the final concentration was 200 mM, with the goal to screen in a concentration range from 50 to 1000 μM. Thus, between 1 μL to 20 µL of DMSO solution of each Jiva compound was added to 4 mL of sterile cell media with FBS adjusted to 1%. The cells were incubated with different compounds for 18 h (i.e. overnight). Following the incubation cells were tested for viability and morphology. The first viability criteria was attachment to the surface, the second viability criteria was resistance to trypan blue uptake. Only viable cells were harvested for ELISA screening.
Confluent cells were scraped from p25 cell-culture bottles and collected in pellets by centrifugation for 5 mins at 1000 g. To measure intracellular amyloid β, the centrifugation helps in concentrating Aβ1-40 peptides for measurements. About 40 micro grams of cell can be recovered from 4 mL cell medium in p25 cell culture bottles. The cell pellets were re-suspended in RIPA buffer and incubated on ice for 30 min.
RIPA buffer means 150 mM sodium chloride; 1% NP-40; 0.5% sodium deoxycholate; 0.1% SDS; 50 mM Tris pH 8.0.
Following lysis, the cell debris was separated by centrifugation, 1 h at 40,000×g. The clear supernatant was collected for ELISA measurements that followed immediately after the centrifugation.
ELISA measurements used IBL ELISA kits for Aβ x-40 using manufacturer's protocol and supplied standards. Briefly, for each measurement 100 μL sample was prepared from 12.5 μL lysis buffer and 87.5 μL ASSAYBUF solutions in each well. ASSAYBUF solution were supplied in the kit, and used to incubate cell lysate with anti-amyloid antibody attached to the wells in ELISA plates. The plate covered with plate-lid was incubated with gentle shaking overnight at 4° C. […]

Aβ42 peptide = conditions: cited from earlier work
[1] = compared with tarenflurbil; cited from earlier work
4 year old children = conditions: cited from earlier work
mild AD patients = conditions: cited from earlier work
[2] = 100000.0 nM, listed as JIVA002B
[3] = 1000000.0 nM, listed as JIVA002B

In the case of `CC/C=C\C/C=C\C/C=C\C/C=C\C/C=C\CCCCC(C(=O)O)C1CC1` (racemic) [JIVA 28, EPA Cyclopropyl-acetic acid-fibrate], the “experiment 1” value (gamma-secretase; 21.4 nM) is reported as 101, the “experiment 2” value (gamma-secretase; 21.4 nM) is reported as 103 and the “experiment 3” value (gamma-secretase; 21.4 nM) is reported as 104. For the same compound, the bestfit2 (gamma-secretase; 21.4 nM) was 100.0, the bestfit3 (gamma-secretase; 21.4 nM) was 100.0 and the bestfit1 (gamma-secretase; 21.4 nM, listed as JIVA002B) was 100.0 and 99.9. For the same compound, the “experiment 1” value (gamma-secretase; 74.1 nM) was 98, the “experiment 2” value (gamma-secretase; 74.1 nM) was 102 and the “experiment 3” value (gamma-secretase; 74.1 nM) was 108. The bestfit2 (gamma-secretase; 74.1 nM) was 99.9, the bestfit1 (gamma-secretase; 74.1 nM, listed as JIVA002B) was 99.8 and 99.7 and the bestfit3 (gamma-secretase; 74.1 nM, listed as JIVA002B) was 99.9 and 99.8. For the same compound, the “experiment 1” value (gamma-secretase; 100.0 nM) was 102, the “experiment 2” value (gamma-secretase; 100.0 nM) was 99 and the “experiment 3” value (gamma-secretase; 100.0 nM) was 97. The bestfit1 (gamma-secretase; 100.0 nM, listed as JIVA002B) was 99.8 and 99.6, the bestfit2 (gamma-secretase; 100.0 nM, listed as JIVA002B) was 99.9 and 99.6 and the bestfit3 (gamma-secretase; 100.0 nM, listed as JIVA002B) was 99.9 and 99.5. The “experiment 1” value (gamma-secretase; 213.8 nM) was 101, the “experiment 2” value (gamma-secretase; 213.8 nM) was 95 and the “experiment 3” value (gamma-secretase; 213.8 nM) was 100. The bestfit1 (gamma-secretase; 213.8 nM, listed as JIVA002B) was 99.5 and 99.1, the bestfit2 (gamma-secretase; 213.8 nM, listed as JIVA002B) was 99.7 and 99.6 and the bestfit3 (gamma-secretase; 213.8 nM, listed as JIVA002B) was 99.7 and 99.5. For the same compound, the “experiment 1” value (gamma-secretase; 741.3 nM) was 97, the “experiment 2” value (gamma-secretase; 741.3 nM) was 100 and the “experiment 3” value (gamma-secretase; 741.3 nM) was 94. For the same compound, the bestfit1 (gamma-secretase; 741.3 nM, listed as JIVA002B) was 98.5 and 97.0, the bestfit2 (gamma-secretase; 741.3 nM, listed as JIVA002B) was 99.1 and 98.6 and the bestfit3 (gamma-secretase; 741.3 nM, listed as JIVA002B) was 99.0 and 98.3. For the same compound, the “experiment 2” value (gamma-secretase; 1000.0 nM) was 101, the “experiment 3” value (gamma-secretase; 1000.0 nM) was 104 and the “experiment 1” value (gamma-secretase; 1000.0 nM, listed as JIVA002B) was 96 and 95. The bestfit1 (gamma-secretase; 1000.0 nM, listed as JIVA002B) was 97.8 and 96.0, the bestfit2 (gamma-secretase; 1000.0 nM, listed as JIVA002B) was 99.8 and 98.2 and the bestfit3 (gamma-secretase; 1000.0 nM, listed as JIVA002B) was 98.6 and 97.8. For the same compound, the “experiment 1” value (gamma-secretase; 2138.0 nM) was 90, the “experiment 2” value (gamma-secretase; 2138.0 nM) was 98 and the “experiment 3” value (gamma-secretase; 2138.0 nM) was 90. For the same compound, the bestfit2 (gamma-secretase; 2138.0 nM, listed as JIVA002B) was 97.5 and 96.2, the bestfit3 (gamma-secretase; 2138.0 nM, listed as JIVA002B) was 97.1 and 95.4 and the “experiment 2” value (gamma-secretase; 7413.1 nM) was 85. The “experiment 1” value (gamma-secretase; 7413.1 nM, listed as JIVA002B) was 90 and 75, the “experiment 3” value (gamma-secretase; 7413.1 nM, listed as JIVA002B) was 96 and 79 and the bestfit1 (gamma-secretase; 7413.1 nM, listed as JIVA002B) was 85.6 and 76.4. For the same compound, the bestfit2 (gamma-secretase; 7413.1 nM, listed as JIVA002B) was 91.9 and 87.9, the bestfit3 (gamma-secretase; 7413.1 nM, listed as JIVA002B) was 90.5 and 85.6 and the “experiment 2” value (gamma-secretase; 10000.0 nM) was 85. The “experiment 1” value (gamma-secretase; 10000.0 nM, listed as JIVA002B) was 88 and 71, the bestfit1 (gamma-secretase; 10000.0 nM, listed as JIVA002B) was 81.5 and 70.6 and the bestfit2 (gamma-secretase; 10000.0 nM, listed as JIVA002B) was 89.4 and 84.4. For the same compound, the bestfit3 (gamma-secretase; 10000.0 nM, listed as JIVA002B) was 87.7 and 81.5, the “experiment 1” value (gamma-secretase; 21379.5 nM, listed as JIVA002B) was 73 and 58 and the “experiment 2” value (gamma-secretase; 21379.5 nM, listed as JIVA002B) was 73 and 62. For the same compound, the “experiment 3” value (gamma-secretase; 21379.5 nM, listed as JIVA002B) was 79 and 64, the bestfit1 (gamma-secretase; 21379.5 nM, listed as JIVA002B) was 57.3 and 52.9 and the bestfit2 (gamma-secretase; 21379.5 nM, listed as JIVA002B) was 79.7 and 71.6. For the same compound, the bestfit3 (gamma-secretase; 21379.5 nM, listed as JIVA002B) was 76.9 and 67.3, the “experiment 2” value (gamma-secretase; 74131.0 nM) was 46 and the “experiment 1” value (gamma-secretase; 74131.0 nM, listed as JIVA002B) was 28 and 18. The “experiment 3” value (gamma-secretase; 74131.0 nM, listed as JIVA002B) was 57 and 33, the bestfit2 (gamma-secretase; 74131.0 nM, listed as JIVA002B) was 53.1 and 42.1 and the bestfit3 (gamma-secretase; 74131.0 nM, listed as JIVA002B) was 48.9 and 37.2. For the same compound, the “experiment 1” value (gamma-secretase; [2]) was 26 and 13, the “experiment 2” value (gamma-secretase; [2]) was 49 and 33 and the “experiment 3” value (gamma-secretase; [2]) was 46 and 27. For the same compound, the bestfit2 (gamma-secretase; [2]) was 45.7 and 35.1, the bestfit3 (gamma-secretase; [2]) was 41.5 and 30.5 and the “experiment 1” value (gamma-secretase; 1000000.0 nM) was 2. For the same compound, the “experiment 2” value (gamma-secretase; 1000000.0 nM) was 8, the “experiment 3” value (gamma-secretase; 1000000.0 nM) was 2 and the bestfit1 (gamma-secretase; [3]) was 4.2 and 2.3. For the same compound, the bestfit2 (gamma-secretase; [3]) was 7.7 and 5.1, the bestfit3 (gamma-secretase; [3]) was 6.6 and 4.2 and the average signal triplicates (gamma-secretase; 20 microM) was 0.162. For the same compound, the “signal nomalised to cells” value (gamma-secretase; 20 microM) was 0.034, the sign-bkgr (gamma-secretase; 20 microM) was 0.042 and the IC50 (gamma-secretase; first, experiment 1) was 44 µM and 24 µM. For the same compound, the IC50 (gamma-secretase; second, experiment 2) was 84 µM and 54 µM and the IC50 (gamma-secretase; third, experiment 3) was 71 µM and 44 µM.
For `O=C(O)C1(c2ccc(-c3ccc(Cl)c(Cl)c3)c(F)c2)CC1` [CHF-5074], the “Aβ42 IC50” value (Aβ42 peptide) is given as “potent” and the brain penetration [1] is given as “greater brain penetration”.
For `CC/C=C\C/C=C\C/C=C\C/C=C\C/C=C\C/C=C\CCC(=O)O` [DHA, cis,cis,cis,cis,cis,cis-4,7,10,13,16,19-docosahexaenoic acid], the “effects on cognitive function” value (4 year old children) is listed as “beneficial effects”.
In the case of `CC/C=C\C/C=C\C/C=C\C/C=C\C/C=C\CCCCC1(C(=O)OC(C)(C)C)CC1` [JIVA 24, EPA Cyclopropyl-fibrate t-butyl Ester], the average signal triplicates (gamma-secretase; 7.13 microM) is reported as 0.300, the “signal nomalised to cells” value (gamma-secretase; 7.13 microM) is reported as 0.233 and the sign-bkgr (gamma-secretase; 7.13 microM) is reported as 0.246.
For `CC/C=C\C/C=C\C/C=C\CCCCCCCCC1(C(=O)OC(C)(C)C)CC1` [JIVA 25, ALA Cyclopropyl-fibrate t-butyl Ester], the “signal nomalised to cells” value (gamma-secretase; 20 microM) was 0.209 and 0.130 and the sign-bkgr (gamma-secretase; 20 microM) was 0.316 and 0.173.
In the case of `CC/C=C\C/C=C\C/C=C\CCCCCCCCC1(C(=O)O)CC1` [JIVA 27, ALA Cyclopropyl Fibrate], the average signal triplicates (gamma-secretase; 20 microM) is reported as 0.355, the “signal nomalised to cells” value (gamma-secretase; 20 microM) is reported as 0.201 and the sign-bkgr (gamma-secretase; 20 microM) is reported as 0.236.
In the case of `CC/C=C\C/C=C\C/C=C\CCCCCCCCC(C(=O)O)C1CC1` (centres unmarked) [JIVA 29, ALA Cyclopropyl Acetic Acid Fibrate], the average signal triplicates (gamma-secretase; 20 microM) is reported as 0.141, the “signal nomalised to cells” value (gamma-secretase; 20 microM) is reported as 0.026 and the sign-bkgr (gamma-secretase; 20 microM) is reported as 0.021.
In the case of `CC(C)C[C@H](C(=O)O)c1cc(-c2ccc(C(F)(F)F)cc2)cc(-c2ccc(C(F)(F)F)cc2)c1` [JNJ-40418677], the “Aβ42 IC50” value (Aβ42 peptide) is listed as “potent” and the brain penetration [1] is listed as “greater brain penetration”.
With `CC(C)[C@H](O)C(=O)N[C@@H](C)C(=O)N[C@@H]1C(=O)N(C)CCc2ccccc21` [SEMAGACESTAT, semagacestat, reference compound] the average signal triplicates (gamma-secretase; 2 microM) was 0.12, the “signal nomalised to cells” value (gamma-secretase; 2 microM) was 0.000 and the sign-bkgr (gamma-secretase; 2 microM) was 0.
In the case of `C[C@@H](C(=O)O)c1ccc(-c2ccccc2)c(F)c1` [tarenflurbil], the “outcome of large scale clinical trials” value (mild AD patients) is given as “failed large scale clinical trials” and the “potency at inhibiting formation of toxic Aβ42 peptide” value (Aβ42 peptide) is given as “low potency”.
